Experimental data published in patent US20230263822A1, “MODULATION OF FACTOR 11 EXPRESSION” (Ionis Pharmaceuticals, Inc., priority 2008, published 2023).
Strand notation (5' to 3'): a small letter for the sugar, then the base; units joined by * are phosphorothioate-linked, units joined directly phosphodiester-linked; [ ] holds rarer units or linkages, { } end groups; capitals alone tell only the bases. e = 2'-O-(2-methoxyethyl) (MOE); [5mC] = 5-methylcytosine; d = 2'-deoxy (DNA)

Tests used:
Type in all cases: in vivo
[1] = Body and organ weights of cynomolgus monkeys (Example 46); set-up: Liver weight / Spleen weight / Kidney weight: unit not given here; details: for Kidney weight / Liver weight / Spleen weight: day 55, after euthanasia
Procedure: (§1) Groups, each consisting of two male and two female monkeys, were injected subcutaneously with 25 mg/kg of ISIS 416850, ISIS 449709, ISIS 445522, ISIS 449710, ISIS 449707, ISIS 449711, ISIS 449708, 416858, and ISIS 445531. Antisense oligonucleotide was administered to the monkeys at 25 mg/kg three times per week for week 1 and 25 mg/kg twice per week for weeks 2 to 8. A control group, consisting of two male and two female monkeys was injected subcutaneously with PBS according to the same dosing regimen. Body weights were taken 14 days and 7 days before the start of treatment and were then measured weekly throughout the treatment period. Blood samples were collected 14 days and 5 days before the start of treatment and subsequently several times during the dosing regimen for PT and aPTT measurements, and measurement of various hematologic factors. On day 55, the monkeys were euthanized by exsanguination while under deep anesthesia, and organs harvested for further analysis.
Organ weights were taken after the animals were euthanized on day 55, and livers, kidneys and spleens were harvested.

[2] = Kidney function, BUN, urine protein to creatinine ratio in cynomolgus monkeys (Example 46); details: for Urine protein/creatinine ratio: day 49
Procedure: as §1
To evaluate the impact of ISIS oligonucleotides on kidney function, urine samples were collected on different days. […] The ratio of urine protein to creatinine in urine samples after antisense oligonucleotide treatment was also calculated for day 49 and results are presented in Table 156. As observed in Tables 155 and 156, there were no significant increases in any of the kidney metabolic markers after antisense oligonucleotide treatment.

[3] = tested on: IL-1β, IL-6, IFN-γ, TNF-α, IL-8, MIP-1α, MCP-1, MIP-1β, RANTES; assay: Cytokine and chemokine assays in cynomolgus monkeys (Example 46)
Procedure: as §1
Blood samples obtained from all monkey groups were sent to Pierce Biotechnology (Woburn, Mass.) for measurements of chemokine and cytokine levels. Levels of IL-1β, IL-6, IFN-γ, and TNF-α were measured using the respective primate antibodies and levels of IL-8, MIP-1α, MCP-1, MIP-1β and RANTES were measured using the respective cross-reacting human antibodies. Measurements were taken 14 days before the start of treatment and on day 55, when the monkeys were euthanized.

[4] = Day −5 (before start of treatment)
[5] = Day −14 (before start of treatment)
[6] = day-14 (before start of treatment)

| Substance | body weight ([1]; day 1) | body weight ([1]; day 8) | body weight ([1]; day 15) | body weight ([1]; day 22) | body weight ([1]; day 29) | body weight ([1]; day 36) | body weight ([1]; day 43) | body weight ([1]; day 50) | Kidney weight [1] | Liver weight [1] | Spleen weight [1] | body weight ([1]; day −7) | body weight ([1]; day −14) | BUN levels ([2]; Day 31) | BUN levels ([2]; Day 55) | BUN levels [2, 4] | BUN levels [2, 5] | Urine protein/creatinine ratio [2] | IFN-γ level ([3]; day 55) | IL-1ß level ([3]; day 55) | also measured |
| --- | --- | --- | --- | --- | --- | --- | --- | --- | --- | --- | --- | --- | --- | --- | --- | --- | --- | --- | --- | --- | --- |
| ISIS 445531: 5-8-5 or 6-8-6 MOE microwalk gapmer (Table 44) (antisense eG*eG*e[5mC]*eA*eT*dT*dG*dG*dT*dG*d[5mC]*dA*d[5mC]*eA*eG*eT*eT*eT) | 2125 g | 2119 g | 2109 g | 2143 g | 2148 g | 2191 g | 2233 g | 2197 g | 0.49 | 2.8 | 0.24 | 2092 g | 2079 g | 20 mg/dL | 22 mg/dL | 18 mg/dL | 22 mg/dL | 0.08 | 15 pg/mL | 155 pg/mL | IL-6 level ([3]; day 55): 1 pg/mL; IL-8 level ([3]; day 55): 293 pg/mL; MCP-1 level ([3]; day 55): 339 pg/mL; MIP-1ß level ([3]; day 55): 84 pg/mL; MIP-1α level ([3]; day 55): 12 pg/mL; RANTES level ([3]; day 55): 5935 pg/mL; TNF-α level ([3]; day 55): 16 pg/mL; IFN-γ level [3, 6]: 68 pg/mL; IL-1ß level [3, 6]: 101 pg/mL; IL-6 level [3, 6]: 2 pg/mL; IL-8 level [3, 6]: 83 pg/mL; MCP-1 level [3, 6]: 317 pg/mL; MIP-1ß level [3, 6]: 22 pg/mL; MIP-1α level [3, 6]: 25 pg/mL; RANTES level [3, 6]: 7825 pg/mL; TNF-α level [3, 6]: 9 pg/mL |
| ISIS 449707: 3-8-3, 4-8-4, 2-10-2, 3-10-3 or 4-10-4 MOE microwalk gapmer (Table 46) (antisense e[5mC]*eA*e[5mC]*eA*dG*dT*dT*dT*d[5mC]*dT*dG*dG*e[5mC]*eA*eG*eG) | 2107 g | 2088 g | 2120 g | 2142 g | 2155 g | 2158 g | 2197 g | 2185 g | 0.53 | 2.5 | 0.24 | 2083 g | 2072 g | 21 mg/dL | 20 mg/dL | 21 mg/dL | 25 mg/dL | 0.03 | 24 pg/mL | 97 pg/mL | IL-6 level ([3]; day 55): 1 pg/mL; IL-8 level ([3]; day 55): 48 pg/mL; MCP-1 level ([3]; day 55): 264 pg/mL; MIP-1ß level ([3]; day 55): 49 pg/mL; MIP-1α level ([3]; day 55): 12 pg/mL; RANTES level ([3]; day 55): 1193 pg/mL; TNF-α level ([3]; day 55): 16 pg/mL; IFN-γ level [3, 6]: 34 pg/mL; IL-1ß level [3, 6]: 115 pg/mL; IL-6 level [3, 6]: 1 pg/mL; IL-8 level [3, 6]: 106 pg/mL; MCP-1 level [3, 6]: 294 pg/mL; MIP-1ß level [3, 6]: 13 pg/mL; MIP-1α level [3, 6]: 16 pg/mL; RANTES level [3, 6]: 3014 pg/mL; TNF-α level [3, 6]: 6 pg/mL |
| ISIS 449708: 3-8-3, 4-8-4, 2-10-2, 3-10-3 or 4-10-4 MOE microwalk gapmer (Table 46) (antisense eA*e[5mC]*eA*dG*dT*dT*dT*d[5mC]*dT*dG*dG*e[5mC]*eA*eG) | 2130 g | 2148 g | 2125 g | 2110 g | 2095 g | 2100 g | 2125 g | 2076 g | 0.60 | 2.6 | 0.19 | 2163 g | 2096 g | 23 mg/dL | 23 mg/dL | 23 mg/dL | 25 mg/dL | 0.00 | 18 pg/mL | 131 pg/mL | IL-6 level ([3]; day 55): 0 pg/mL; IL-8 level ([3]; day 55): 85 pg/mL; MCP-1 level ([3]; day 55): 409 pg/mL; MIP-1ß level ([3]; day 55): 128 pg/mL; MIP-1α level ([3]; day 55): 23 pg/mL; RANTES level ([3]; day 55): 4561 pg/mL; TNF-α level ([3]; day 55): 17 pg/mL; IFN-γ level [3, 6]: 27 pg/mL; IL-1ß level [3, 6]: 35 pg/mL; IL-6 level [3, 6]: 1 pg/mL; IL-8 level [3, 6]: 184 pg/mL; MCP-1 level [3, 6]: 361 pg/mL; MIP-1ß level [3, 6]: 19 pg/mL; MIP-1α level [3, 6]: 11 pg/mL; RANTES level [3, 6]: 11666 pg/mL; TNF-α level [3, 6]: 12 pg/mL |
| ISIS 449709: 3-8-3, 4-8-4, 2-10-2, 3-10-3 or 4-10-4 MOE microwalk gapmer (Table 46) (antisense eG*e[5mC]*eA*e[5mC]*dA*dG*dT*dT*dT*d[5mC]*dT*dG*dG*d[5mC]*eA*eG*eG*e[5mC]) | 2112 g | 2075 g | 2085 g | 2117 g | 2068 g | 2064 g | 2106 g | 2147 g | 0.57 | 2.6 | 0.21 | 2093 g | 2044 g | 20 mg/dL | 28 mg/dL | 21 mg/dL | 22 mg/dL | 0.05 | 25 pg/mL | 181 pg/mL | IL-6 level ([3]; day 55): 0 pg/mL; IL-8 level ([3]; day 55): 254 pg/mL; MCP-1 level ([3]; day 55): 507 pg/mL; MIP-1ß level ([3]; day 55): 47 pg/mL; MIP-1α level ([3]; day 55): 17 pg/mL; RANTES level ([3]; day 55): 8958 pg/mL; TNF-α level ([3]; day 55): 8 pg/mL; IFN-γ level [3, 6]: 37 pg/mL; IL-1ß level [3, 6]: 137 pg/mL; IL-6 level [3, 6]: 1 pg/mL; IL-8 level [3, 6]: 34 pg/mL; MCP-1 level [3, 6]: 290 pg/mL; MIP-1ß level [3, 6]: 14 pg/mL; MIP-1α level [3, 6]: 13 pg/mL; RANTES level [3, 6]: 2471 pg/mL; TNF-α level [3, 6]: 9 pg/mL |
